Measurements published in PubChem BioAssay (NCI).
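Cells were grown in 96-well plates and exposed to each compound for 48 hours at five concentrations; endpoints were interpolated linearly between bracketing concentrations, or set to the highest concentration if not reached. GI50 = concentration required for 50% inhibition of growth. TGI: total growth inhibition.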

Tests used:
Experiment in all cases: NCI tumour cell line growth inhibition, 48 h
[1] = test system: 786-0 renal
[2] = test system: A498 renal
[3] = test system: A549 NSCLC
[4] = test system: ACHN renal
[5] = test system: BT-549 breast
[6] = test system: CAKI-1 renal
[7] = test system: CCRF-CEM leukemia
[8] = test system: COLO 205 colon
[9] = test system: DU-145 prostate
[10] = test system: EKVX NSCLC
[11] = test system: HCC-2998 colon
[12] = test system: HCT-116 colon
[13] = test system: HCT-15 colon
[14] = test system: HL-60(TB) leukemia
[15] = test system: HOP-62 NSCLC
[16] = test system: HOP-92 NSCLC
[17] = test system: HS 578T breast
[18] = test system: HT29 colon
[19] = test system: IGROV1 ovarian
[20] = test system: K-562 leukemia
[21] = test system: KM12 colon
[22] = test system: LOX IMVI melanoma
[23] = test system: M14 melanoma
[24] = test system: MALME-3M melanoma
[25] = test system: MCF7 breast
[26] = test system: MDA-MB-231 breast
[27] = test system: MDA-MB-435
[28] = test system: MOLT-4 leukemia
[29] = test system: NCI-H226 lung
[30] = test system: NCI-H460 lung
[31] = test system: NCI-H522 lung
[32] = test system: NCI/ADR-RES ovarian
[33] = test system: OVCAR-3 ovarian
[34] = test system: OVCAR-4 ovarian
[35] = test system: OVCAR-5 ovarian
[36] = test system: OVCAR-8 ovarian
[37] = test system: PC-3 prostate
[38] = test system: RPMI-8226 leukemia
[39] = test system: RXF 393 renal
[40] = test system: SF-268 CNS
[41] = test system: SF-295 CNS
[42] = test system: SF-539 CNS
[43] = test system: SK-MEL-2 melanoma
[44] = test system: SK-MEL-28 melanoma
[45] = test system: SK-MEL-5 melanoma
[46] = test system: SK-OV-3 ovarian
[47] = test system: SN12C renal
[48] = test system: SNB-19 CNS
[49] = test system: SNB-75 CNS
[50] = test system: SR leukemia
[51] = test system: SW-620 colon
[52] = test system: T-47D breast
[53] = test system: TK-10 renal
[54] = test system: U251 CNS
[55] = test system: UACC-257 melanoma
[56] = test system: UACC-62 melanoma
[57] = test system: UO-31 renal

Structure (SMILES): CS(=O)c1nccc(-c2c(-c3ccc(F)c(OCc4ccc(F)cc4)c3)nc3sccn23)n1 (centres undefined)
- GI50 [1]: > 100 µM
- TGI [1]: > 100 µM
- GI50 [2]: > 100 µM
- TGI [2]: > 100 µM
- GI50 [3]: > 100 µM
- TGI [3]: > 100 µM
- GI50 [4]: 16.9 µM
- TGI [4]: > 100 µM
- GI50 [5]: > 100 µM
- TGI [5]: > 100 µM
- GI50 [6]: 18.4 µM
- TGI [6]: 76.6 µM
- GI50 [7]: 15.8 µM
- TGI [7]: > 100 µM
- GI50 [8]: > 100 µM
- TGI [8]: > 100 µM
- GI50 [9]: 3.72 µM
- TGI [9]: 13.2 µM
- GI50 [10]: 16.3 µM
- TGI [10]: 41.3 µM
- GI50 [11]: 10.2 µM
- TGI [11]: 23.6 µM
- GI50 [12]: 5.08 µM
- TGI [12]: 20.8 µM
- GI50 [13]: 16.3 µM
- TGI [13]: > 100 µM
- GI50 [14]: 3.54 µM
- TGI [14]: 13.7 µM
- GI50 [15]: 17.7 µM
- TGI [15]: 40.6 µM
- GI50 [16]: 5.76 µM
- TGI [16]: 43.9 µM
- GI50 [17]: 73.1 µM
- TGI [17]: > 100 µM
- GI50 [18]: 22.3 µM
- TGI [18]: > 100 µM
- GI50 [19]: 4.14 µM
- TGI [19]: 17.1 µM
- GI50 [20]: 6.53 µM
- TGI [20]: > 100 µM
- GI50 [21]: 11.3 µM
- TGI [21]: 31.6 µM
- GI50 [22]: 74.6 µM
- TGI [22]: > 100 µM
- GI50 [23]: 35.1 µM
- TGI [23]: > 100 µM
- GI50 [24]: > 100 µM
- TGI [24]: > 100 µM
- GI50 [25]: 2.18 µM
- TGI [25]: 5.39 µM
- GI50 [26]: 26.8 µM
- TGI [26]: > 100 µM
- GI50 [27]: 47.8 µM
- TGI [27]: > 100 µM
- GI50 [28]: 10.2 µM
- TGI [28]: 90.2 µM
- GI50 [29]: > 100 µM
- TGI [29]: > 100 µM
- GI50 [30]: 3.78 µM
- TGI [30]: 14.3 µM
- GI50 [31]: 60.6 µM
- TGI [31]: > 100 µM
- GI50 [32]: > 100 µM
- TGI [32]: > 100 µM
- GI50 [33]: 2.84 µM
- TGI [33]: 10.7 µM
- GI50 [34]: 22.4 µM
- TGI [34]: 74.1 µM
- GI50 [35]: > 100 µM
- TGI [35]: > 100 µM
- GI50 [36]: 53.2 µM
- TGI [36]: > 100 µM
- GI50 [37]: 11.3 µM
- TGI [37]: 34.1 µM
- GI50 [38]: 6.55 µM
- TGI [38]: 43.8 µM
- GI50 [39]: 16.5 µM
- TGI [39]: 63.8 µM
- GI50 [40]: 19.5 µM
- TGI [40]: 57.6 µM
- GI50 [41]: > 100 µM
- TGI [41]: > 100 µM
- GI50 [42]: > 100 µM
- TGI [42]: > 100 µM
- GI50 [43]: 71.8 µM
- TGI [43]: > 100 µM
- GI50 [44]: 6.6 µM
- TGI [44]: 21.5 µM
- GI50 [45]: 44 µM
- TGI [45]: > 100 µM
- GI50 [46]: > 100 µM
- TGI [46]: > 100 µM
- GI50 [47]: > 100 µM
- TGI [47]: > 100 µM
- GI50 [48]: 14.9 µM
- TGI [48]: 38.6 µM
- GI50 [49]: > 100 µM
- TGI [49]: > 100 µM
- GI50 [50]: 17.1 µM
- TGI [50]: > 100 µM
- GI50 [51]: 27 µM
- TGI [51]: > 100 µM
- GI50 [52]: 2.64 µM
- TGI [52]: 7 µM
- GI50 [53]: > 100 µM
- TGI [53]: > 100 µM
- GI50 [54]: > 100 µM
- TGI [54]: > 100 µM
- GI50 [55]: 15 µM
- TGI [55]: 36.5 µM
- GI50 [56]: 32.1 µM
- TGI [56]: > 100 µM
- GI50 [57]: > 100 µM
- TGI [57]: > 100 µM
